Read-outs that look alike come from different tables or passages of the source.

In this test the test system is MCF-7 cells. Kind of test: In vitro test of cell activity (MCF-7 cells, insulin stimulation, ELISA-One fluorescence). Type of test: cell-based. Conditions: Homo sapiens, MCF7, MCF-7 cells; for inhibition at 0.5 µM: conc. 0.5 μM; for inhibition at 0.25 µM: conc. 0.25 μM; for inhibition at 1 µM: conc. 1 μM. How it is done:
Example In Vitro Tests of Cell Activities Experimental Steps and Methods:
1) MCF-7 cells were inoculated at the density of 2.5×10^4 cells/well into 96-well plates (the culture medium used should be a complete culture medium containing 10% FBS).
2) On the next day, the medium in each well was drawn out. A certain concentration (preliminary screening) or a series of concentration (IC50 test) of compounds were dissolved in a culture medium without serum and added to the 96-well plates to culture cells for 2 hours.
3) Insulin was dissolved in a culture medium without serum, added to the cultured cells and incubated for 30 minutes, wherein the final concentration of insulin was […].
4) A lysis solution was prepared according to the following method during the waiting period for the reaction:
a) Enhancer solution was removed from the refrigerator to melt in advance.
b) Enhancer solution was diluted 10 times with the 5× Lysis Buffer to give a concentrated lysis solution.
c) The concentrated lysis solution was diluted 5 times with double distilled water to give the lysis solution.
5) The medium in each well was completely removed and each well was quickly rinsed with PBS once.
6) 150 μl of the freshly prepared lysis solution was added to each well and shaked at room temperature for 10 minutes.
7) After confirming that all cells were detached, the lysis solution together with the cell fragments was transferred into a 1.5 ml tube.
8) The tube was shaked on vortes mixer to make the lysis solution and cells mix completely and then the mixture was centrifugated at 4° C. under 12000 g for 10 minutes.
9) The number of strips of ELISA-one micro-well plate that is required was calculated. The needless strips were removed from the frame, put back into the storage bag and sealed. Before the strips of micro-well plate were used, 200 μl of double distilled water was used to rinse each well to remove preservative.
10) 50 μl of antibody mixture was added to each well. (The antibody mixture solution was prepared by mixing the medium antibody reagent and the enzyme labeled antibody reagent with an equal proportion. The preparation of antibody mixture didn't need vortex.)
11) 25 μl of cell lysates was added to each well of ELISA-One micro-well plate. The micro-well plate was covered with adhesive sealing film and incubated on a micro-well plate oscillation instrument at room temperature for 1 hour.
12) Each well was rinsed with 150 μl of 1× rinsing buffer 3 times. After the last rinsing, the rinsing buffer in the well was completely removed. If necessary, the 1× rinsing buffer could be allowed to stay in the micro-well plate for up to 30 minutes so that the substrate mixed solution could be prepared during such time period.
13) The substrate mixed solution should be prepared just before each use, 10 μl of the substrate mixed solution was added to each well and the micro-well plate was sealed with tin-foil and incubated on the micro-well plate oscillation instrument at room temperature for 10 minutes.
14) 10 μl of stop solution was added to each well and mixed slightly (5-10 seconds) on the micro-well plate oscillation instrument.
15) The corresponding ELISA-One filter group was assembled and used to read the fluorescence signal intensity.

Turning to `COc1ncc(-c2ccc3ncc(F)c(=O)n3c2)cc1NS(=O)(=O)c1ccc(F)cc1Cl` [compound 62], the inhibition at 0.5 µM by setting is: (read-out: % inhibition AKT) 90.2%; (read-out: % inhibition p70s6k) 90.8%. For the same compound, the IC50 by setting is: (read-out: IC50 p-AKT) ≤ 50 nM; (read-out: IC50 p-p70S6K) 50 to 100 nM.

Take `COc1ncc(-c2ccc3nc(C)cc(=O)n3c2)cc1NS(=O)(=O)c1ccc(F)cc1F` [compound 221, 2,4-difluoro-N-(2-methoxy-5-(2-methyl-4-oxo-4H-pyrido[1,2-a]pyrimidin-7-yl)pyridin-3-yl)benzsulfamide]: the inhibition at 0.25 µM is, setting by setting: (read-out: % inhibition AKT) -42%; (read-out: % inhibition p70s6k) 6.8%.

As to `COCOCCOc1cnc2ccc(-c3cnc(OC)c(NS(=O)(=O)c4sc(C)nc4C)c3)cn2c1=O` [compound 188], the IC50 (read-out: IC50 p-AKT) was ≤ 50 nM.

Consider `COc1ncc(-c2cn3c(=O)ccnc3cc2F)cc1NS(=O)(=O)c1ccc(F)cc1Cl` [compound 117], for which the inhibition at 0.5 µM amounted to 63.7% (read-out: % inhibition AKT) and 16.6% (read-out: % inhibition p70s6k).

On to `COc1ncc(-c2ccc3ncc(OCC4COC4)c(=O)n3c2)cc1NS(=O)(=O)c1ccc(F)cc1Cl` [compound 214], for which, where the note is “read-out: IC50 p-AKT”, the IC50 is ≤ 50 nM.

For the compound `COc1ncc(-c2ccc3ncc(N(C)C)c(=O)n3c2)cc1NS(=O)(=O)c1ccc(F)cc1F` [compound 96], the IC50 (read-out: IC50 p-AKT) was > 250 nM.

Regarding `CCc1cc(F)ccc1S(=O)(=O)Nc1cc(-c2ccc3ncc(OCCOC)c(=O)n3c2)cnc1OC` [compound 280], where the note is “read-out: IC50 p-AKT”, the IC50 is ≤ 50 nM.

`COc1ncc(-c2cn3c(=O)ccnc3cn2)cc1NS(=O)(=O)c1cc(F)cc(F)c1` [compound 40]: the inhibition at 0.5 µM reads like this: (read-out: % inhibition AKT) 18.1%; (read-out: % inhibition p70s6k) 13.7%.

For `COc1ncc(-c2cn3c(=O)ccnc3cc2C)cc1NS(=O)(=O)c1ccc(F)cc1Cl` [compound 128], the inhibition at 0.5 µM reads like this: (read-out: % inhibition AKT) -1.1%; (read-out: % inhibition p70s6k) 0.4%.

In the case of `COc1ncc(-c2ccc3ncc(Cl)c(=O)n3c2)cc1NS(=O)(=O)c1ccc(F)cc1C` [compound 134], the inhibition at 0.5 µM was determined as 94.9% (read-out: % inhibition AKT) and 87.7% (read-out: % inhibition p70s6k). For the same compound, the IC50 runs as follows: (read-out: IC50 p-AKT) ≤ 50 nM; (read-out: IC50 p-p70S6K) 50 to 100 nM.

Consider `COc1ncc(-c2ccc3ncc(F)c(=O)n3c2)cc1NS(=O)(=O)c1ccc(F)cc1C` [compound 66], for which the inhibition at 0.5 µM (read-out: % inhibition AKT) was 89% and the inhibition at 0.5 µM (read-out: % inhibition p70s6k) was found to be 91.3%. For the same compound, the IC50 (read-out: IC50 p-AKT) was ≤ 50 nM and the IC50 (read-out: IC50 p-p70S6K) is ≤ 50 nM.

For `COc1ncc(-c2ccc3nccc(=O)n3c2C)cc1NS(=O)(=O)c1ccccc1Cl` [compound 54], the inhibition at 0.5 µM (read-out: % inhibition AKT) was found to be 83.1% and the inhibition at 0.5 µM (read-out: % inhibition p70s6k) worked out at 50.8%.

`COc1ncc(-c2ccc3ncc(OCCO)c(=O)n3c2)cc1NS(=O)(=O)c1ccc(F)cc1F` [compound 178]: where the note is “read-out: IC50 p-AKT”, the IC50 fell in the range of 50 to 100 nM.

For `COc1ncc(-c2ccc3ncc(Cl)c(=O)n3c2)cc1NS(=O)(=O)c1ccc(F)c(F)c1` [compound 145], the inhibition at 0.5 µM by setting is: (read-out: % inhibition AKT) 94.9%; (read-out: % inhibition p70s6k) 90.5%. Moreover, the IC50 reads like this: (read-out: IC50 p-AKT) ≤ 50 nM; (read-out: IC50 p-p70S6K) 100 to 250 nM.

As for `COc1ncc(-c2ccc3ncc(N)c(=O)n3c2)cc1NS(=O)(=O)c1sc(C)nc1C` [compound 93], the IC50 (read-out: IC50 p-AKT) is ≤ 50 nM.

Take `COc1ncc(-c2ccc3ncc(C)c(=O)n3c2)cc1NS(=O)(=O)c1ccccc1Cl` [compound 85]: the inhibition at 0.5 µM by setting is: (read-out: % inhibition AKT) 95.8%; (read-out: % inhibition p70s6k) 88.3%. Also, the IC50 is ≤ 50 nM (read-out: IC50 p-AKT) and 50 to 100 nM (read-out: IC50 p-p70S6K).

With `COc1ncc(-c2cn3c(=O)ccnc3cc2C)cc1NS(=O)(=O)c1ccccc1F` [compound 123], the inhibition at 0.5 µM (read-out: % inhibition AKT) was -82.1% and the inhibition at 0.5 µM (read-out: % inhibition p70s6k) amounted to 6.7%.

As for `COc1ncc(-c2ccc3nc(C)cc(=O)n3c2)cc1NS(=O)(=O)c1ccc(C(F)(F)F)cc1` [compound 223], the inhibition at 0.25 µM (read-out: % inhibition AKT) was 17.9% and the inhibition at 0.25 µM (read-out: % inhibition p70s6k) is -1.5%.

`COc1ncc(-c2ccc3ncc(OCC4OCCO4)c(=O)n3c2)cc1NS(=O)(=O)c1sc(C)nc1C` [compound 186]: the IC50 (read-out: IC50 p-AKT) was ≤ 50 nM.

As for `COc1ncc(-c2ccc3nccc(=O)n3n2)cc1NS(=O)(=O)c1ccc(F)cc1F` [compound 71, 2,4-difluoro-N-(2-methoxy-5-(4-oxo-4H-pyrimido[1,2-b]pyridazin-7-yl)pyridin-3-yl)benzsulfamide], the inhibition at 0.5 µM (read-out: % inhibition AKT) is 63.2% and the inhibition at 0.5 µM (read-out: % inhibition p70s6k) was determined as 20.7%.

Consider `COc1ccc(S(=O)(=O)Nc2cc(-c3ccc4nccc(=O)n4c3)cnc2OC)cc1` [compound 24], for which the inhibition at 1 µM is 94.6% (read-out: % inhibition AKT) and 93.2% (read-out: % inhibition p70s6k). For the same compound, the IC50 lay within 50 to 100 nM (read-out: IC50 p-AKT) and 100 to 250 nM (read-out: IC50 p-p70S6K).

Consider `COc1ncc(-c2ccc3ncc(Cl)c(=O)n3c2)cc1NS(=O)(=O)c1cc(F)cc(F)c1` [compound 147], for which the inhibition at 0.25 µM is, setting by setting: (read-out: % inhibition AKT) 80.3%; (read-out: % inhibition p70s6k) 81.3%. The IC50 (read-out: IC50 p-AKT) fell in the range of 50 to 100 nM and the IC50 (read-out: IC50 p-p70S6K) was 50 to 100 nM.

Regarding `CCOc1cnc2ccc(-c3cnc(OC)c(NS(=O)(=O)c4ccccc4Cl)c3)cn2c1=O` [compound 173], the inhibition at 0.25 µM was 88.9% (read-out: % inhibition AKT) and 82.6% (read-out: % inhibition p70s6k).

With `COc1nnc(-c2ccc3ncc(Cl)c(=O)n3c2)cc1NS(=O)(=O)c1ccc(F)cc1F` [compound 133], for the setting “read-out: IC50 p-AKT”, the IC50 was > 250 nM.

Take `COc1ncc(-c2cn3c(=O)ccnc3cc2C)cc1NS(=O)(=O)c1ccccc1Cl` [compound 122]: the inhibition at 0.5 µM by setting is: (read-out: % inhibition AKT) -26.6%; (read-out: % inhibition p70s6k) 1.2%.

For `COc1ncc(-c2cn3c(=O)ccnc3cc2F)cc1NS(=O)(=O)c1ccc(C(F)(F)F)cc1` [compound 118], the inhibition at 0.5 µM by setting is: (read-out: % inhibition AKT) 27.8%; (read-out: % inhibition p70s6k) 11.5%.

For `COc1ncc(-c2ccc3ncc(O)c(=O)n3c2)cc1NS(=O)(=O)c1ccccc1Cl` [compound 102], the inhibition at 0.25 µM (read-out: % inhibition AKT) was determined as 37.3% and the inhibition at 0.25 µM (read-out: % inhibition p70s6k) worked out at 18.2%.

`COc1ncc(-c2ccc3ncc(OC)c(=O)n3c2)cc1NS(=O)(=O)c1sc(N)nc1C` [compound 109]: under “read-out: IC50 p-AKT”, the IC50 was ≤ 50 nM.

With `COCCOc1cnc2ccc(-c3cnc(OC)c(NS(=O)(=O)c4sc(N(C)C)nc4C)c3)cn2c1=O` [compound 193], the IC50 (read-out: IC50 p-AKT) is ≤ 50 nM.

Turning to `COc1ncc(-c2ccc3ncc(F)c(=O)n3c2)cc1NS(=O)(=O)c1ccccc1F` [compound 64], the inhibition at 0.5 µM is 87.8% (read-out: % inhibition AKT) and 91.7% (read-out: % inhibition p70s6k). For the same compound, the IC50 reads like this: (read-out: IC50 p-AKT) ≤ 50 nM; (read-out: IC50 p-p70S6K) ≤ 50 nM.

Turning to `COc1ncc(-c2ccc3nccc(=O)n3c2)cc1NS(=O)(=O)c1ccc(C)nc1` [compound 32], the inhibition at 0.5 µM reads like this: (read-out: % inhibition AKT) 75.1%; (read-out: % inhibition p70s6k) 84.2%. Besides, the IC50 runs as follows: (read-out: IC50 p-AKT) 100 to 250 nM; (read-out: IC50 p-p70S6K) 100 to 250 nM.

As to `COc1ncc(-c2ccc3ncc(OC)c(=O)n3c2)cc1NS(=O)(=O)c1sccc1C` [compound 110], the IC50 (read-out: IC50 p-AKT) was 50 to 100 nM.

Regarding `COc1ncc(-c2ccc3nc(N)cc(=O)n3c2)cc1NS(=O)(=O)c1sc(C)nc1C` [compound 236, N-(5-(2-amino-4-oxo-4H-pyrido[1,2-a]pyrimidin-7-yl)-2-methoxypyridin-3-yl)-2,4-dimethylthiazolyl-5-sulfamide], under “read-out: IC50 p-AKT”, the IC50 is 50 to 100 nM.

As for `COc1ncc(-c2ccc3ncc(-n4ccc(C)n4)c(=O)n3c2)cc1NS(=O)(=O)c1sc(C)nc1C` [compound 218], the inhibition at 0.25 µM runs as follows: (read-out: % inhibition AKT) 85.2%; (read-out: % inhibition p70s6k) 85%. In addition, the IC50 is 100 to 250 nM (read-out: IC50 p-AKT) and 100 to 250 nM (read-out: IC50 p-p70S6K).

Regarding `COc1ncc(-c2cn3c(=O)ccnc3cc2F)cc1NS(=O)(=O)c1cc(F)ccc1F` [compound 116], the inhibition at 0.5 µM was determined as 52.3% (read-out: % inhibition AKT) and 6.7% (read-out: % inhibition p70s6k).

For `CNc1nc(C)c(S(=O)(=O)Nc2cc(-c3ccc4ncc(OCCOC)c(=O)n4c3)cnc2OC)s1` [compound 189], for the setting “read-out: IC50 p-AKT”, the IC50 is ≤ 50 nM.

On to `COCCOc1cnc2ccc(-c3cnc(OC)c(NS(=O)(=O)c4cc(Cl)ccc4F)c3)cn2c1=O` [compound 272], for which the IC50 (read-out: IC50 p-AKT) was ≤ 50 nM.

On to `COCCOc1cnc2ccc(-c3cnc(OC)c(NS(=O)(=O)c4ccccc4F)c3)cn2c1=O` [compound 254], for which the IC50 (read-out: IC50 p-AKT) fell in the range of 50 to 100 nM.

The record behind these values is US9868737B2, “Pyridino[1,2-A]pyrimidone analogue used as MTOR/P13K inhibitor” (CISEN PHARMACEUTICAL CO., LTD., priority 2014, dated 2018).
